The text below walks through data of ChEMBL document CHEMBL2074424, “Breast cancer resistance protein directly confers SN-38 resistance of lung cancer cells” (Biochem Biophys Res Commun, 2001).

The data set addresses T1, Broad substrate specificity ATP-binding cassette transporter ABCG2 (Homo sapiens, UniProt Q9UNQ0).
T1 sequence (Q9UNQ0 whole entry): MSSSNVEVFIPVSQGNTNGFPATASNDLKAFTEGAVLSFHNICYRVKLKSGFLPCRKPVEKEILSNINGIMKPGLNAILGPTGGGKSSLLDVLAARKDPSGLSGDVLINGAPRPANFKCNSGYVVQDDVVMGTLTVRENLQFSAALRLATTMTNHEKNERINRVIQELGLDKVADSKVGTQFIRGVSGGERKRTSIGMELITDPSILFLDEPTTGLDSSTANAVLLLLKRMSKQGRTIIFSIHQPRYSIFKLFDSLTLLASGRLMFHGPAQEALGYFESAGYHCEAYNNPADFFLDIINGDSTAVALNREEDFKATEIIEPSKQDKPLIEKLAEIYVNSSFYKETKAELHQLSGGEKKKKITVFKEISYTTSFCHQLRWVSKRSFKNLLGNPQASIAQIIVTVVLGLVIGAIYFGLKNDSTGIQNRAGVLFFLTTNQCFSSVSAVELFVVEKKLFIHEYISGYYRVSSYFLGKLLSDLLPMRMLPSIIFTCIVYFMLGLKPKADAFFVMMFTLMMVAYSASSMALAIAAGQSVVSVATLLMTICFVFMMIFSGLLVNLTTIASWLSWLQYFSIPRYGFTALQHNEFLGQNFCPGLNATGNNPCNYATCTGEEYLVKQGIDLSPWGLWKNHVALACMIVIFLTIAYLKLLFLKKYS
The data set can be described thus: TP_TRANSPORTER: inhibition of accumulation by antisense of BCRP in PC-6/SN2-5,PC-6/SN2-5H cells. In kind it is functional, cell-based.

Turning to `CCc1c2c(nc3ccc(O)cc13)-c1cc3c(c(=O)n1C2)COC(=O)[C@]3(O)CC` [7-ETHYL-10-HYDROXYCAMPTOTHECIN], the Activity result was “substrate [+]”.
